# Test results as given in publication PMC9295568, “Dual Inhibition of Vacuolar-ATPase and TMPRSS2 Is Required for Complete Blockade of SARS-CoV-2 Entry into Cells” (Antimicrobial Agents and Chemotherapy, 2022).
# Counter-ions that a name gives are not always drawn.
# Test system: endosomal acidification in Vero cells
# Assay: cells
# Type: cell-based
# Conditions: Chlorocebus sabaeus, Vero, read-out: Percent Inhibition (%) of endosomal acidification
# Experimental: Inhibition of endosomal acidification was measured using LysoTracker Red DND-99 (ThermoFisher). […] Data were plotted using Prism 9 (GraphPad).
row,SMILES,inhibition at 40 µM
1,CNCC[C@H](Oc1cccc2ccccc12)c1cccs1 [DULOXETINE HYDROCHLORIDE],59%
2,CNCCCC12CCC(c3ccccc31)c1ccccc12 [MAPROTILINE HYDROCHLORIDE],60%

# Same assay, conditions: Chlorocebus sabaeus; Vero cells, 40 μM, singlet (n=1); read-out: Percent Inhibition (%) of endosomal acidification
row,SMILES,inhibition at 40 µM
1,C=CC(C)(O)CCC=C(C)CCC=C(C)C (mixture of isomers) [NEROLIDOL],66%
2,CCCCCCCCCc1ccc(O)cc1 [4-NONYLPHENOL],79%
3,"CC(C)c1ccc2c(c1)CC[C@H]1[C@](C)(CN)CCC[C@]21C [18-AMINOABIETA-8,11,13-TRIENE SULFATE]",67%
4,CC(=O)c1ccc2c(c1)N(CCCN(C)C)c1ccccc1S2 [ACEPROMAZINE MALEATE],67%
5,CCCCC(CC)CNC(=N)NC(=N)NCCCCCCNC(=N)NC(=N)NCC(CC)CCCC (stereo not drawn) [ALEXIDINE HYDROCHLORIDE],95%
6,Nc1c2ccccc2nc2ccccc12 [AMINACRINE],69%
7,CN(C)CCC=C1c2ccccc2CCc2ccccc21 [AMITRIPTYLINE HYDROCHLORIDE],53%
8,CCOC(=O)C1=C(COCCN)NC(C)=C(C(=O)OC)C1c1ccccc1Cl (stereo not drawn) [AMLODIPINE BESYLATE],76%
9,C[C@@H]1[C@H](O)[C@@H](C)/C=C/C=C/C=C/C=C/C=C/C=C/C=C/[C@H](O[C@@H]2O[C@H](C)[C@@H](O)[C@H](N)[C@@H]2O)C[C@@H]2O[C@](O)(C[C@@H](O)C[C@@H](O)[C@H](O)CC[C@@H](O)C[C@@H](O)CC(=O)O[C@H]1C)C[C@H](O)[C@H]2C(=O)O [AMPHOTERICIN B],60%
10,COc1cc(NS(C)(=O)=O)ccc1Nc1c2ccccc2nc2ccccc12 [AMSACRINE],87%
11,CC(=O)O[C@@H]1CC[C@@]2(C)[C@@H](CC[C@@H]3[C@@H]2CC[C@]2(C)C(=O)CC[C@@H]32)C1 [AN[…]],50%
12,C[C@@H](O[C@H]1OCCN(Cc2n[nH]c(=O)[nH]2)[C@H]1c1ccc(F)cc1)c1cc(C(F)(F)F)cc(C(F)(F)F)c1 [APREPITANT],62%
13,CCCCC/C=C\C/C=C\C/C=C\C/C=C\CCCC(=O)O [ARACHIDONIC ACID],64%
14,COc1ccc(CCN2CCC(Nc3nc4ccccc4n3Cc3ccc(F)cc3)CC2)cc1 [ASTEMIZOLE],50%
15,CN1CCCC(n2nc(Cc3ccc(Cl)cc3)c3ccccc3c2=O)CC1 (stereo not drawn) [AZELASTINE HYDROCHLORIDE],59%
16,Cc1c(-c2ccc(O)cc2)n(Cc2ccc(OCCN3CCCCCC3)cc2)c2ccc(O)cc12 [BAZEDOXIFENE ACETATE],89%
17,CCOC(=O)[C@H](CCc1ccccc1)N[C@H]1CCc2ccccc2N(CC(=O)O)C1=O [BENAZEPRIL HYDROCHLORIDE],64%
18,CN1[C@@H]2CC[C@H]1C[C@@H](OC(c1ccccc1)c1ccccc1)C2 [BENZTROPINE MESYLATE],50%
19,CN(C)CCCOc1nn(Cc2ccccc2)c2ccccc12 [BENZYDAMINE HYDROCHLORIDE],58%
20,CC(C)COCC(CN(Cc1ccccc1)c1ccccc1)N1CCCC1 (stereo not drawn) [BEPRIDIL HYDROCHLORIDE],71%
21,C=C(c1ccc(C(=O)O)cc1)c1cc2c(cc1C)C(C)(C)CCC2(C)C [BEXAROTENE],64%
22,c1ccc(-c2ccc(C(c3ccccc3)n3ccnc3)cc2)cc1 (stereo not drawn) [BIFONAZOLE],50%

row,SMILES,inhibition at 40 µM
1,O=C(CCCN1CCC(O)(c2ccc(Br)cc2)CC1)c1ccc(F)cc1 [BROMPERIDOL],50%
2,C[C@@]12C(=O)OC(=O)[C@]1(C)[C@H]1CC[C@@H]2O1 [CANTHARIDIN],65%
3,CC(C)NCC(O)COc1cccc2[nH]c3ccccc3c12 (stereo not drawn) [CARAZOLOL],54%
4,COc1ccccc1OCCNCC(O)COc1cccc2[nH]c3ccccc3c12 (stereo not drawn) [CARVEDILOL],55%
5,CC1=C(O)C(=O)C=C2C1=CC=C1[C@@]2(C)CC[C@@]2(C)[C@@H]3C[C@](C)(C(=O)O)CC[C@]3(C)CC[C@]12C [CELASTROL],92%
6,CCCCCCCCCCCCCCCC[N+](C)(C)C [CETRIMONIUM BROMIDE],79%
7,COc1cc(-c2ccc(/N=N/c3ccc4c(S(=O)(=O)O)cc(S(=O)(=O)O)c(N)c4c3O)c(OC)c2)ccc1/N=N/c1ccc2c(S(=O)(=O)O)cc(S(=O)(=O)O)c(N)c2c1O [CHICAGO SKY BLUE],54%
8,CN(C)CCCN1c2ccccc2Sc2ccc(Cl)cc21 [CHLORPROMAZINE],65%
9,CN(C)CC/C=C1/c2ccccc2Sc2ccc(Cl)cc21 [CHLORPROTHIXENE HYDROCHLORIDE],57%
10,C[C@@H](NCCCc1cccc(C(F)(F)F)c1)c1cccc2ccccc12 [CINACALCET HYDROCHLORIDE],91%
11,CC(C)/N=c1\cc2n(-c3ccc(Cl)cc3)c3ccccc3nc-2cc1Nc1ccc(Cl)cc1 [CLOFAZIMINE],80%
12,CCN(CC)CCOc1ccc(C(=C(Cl)c2ccccc2)c2ccccc2)cc1 [CLOMIPHENE CITRATE],69%
13,CN(C)CCCN1c2ccccc2CCc2ccc(Cl)cc21 [CLOMIPRAMINE HYDROCHLORIDE],83%
14,Cc1cc(C(C#N)c2ccc(Cl)cc2)c(Cl)cc1NC(=O)c1cc(I)cc(I)c1O (stereo not drawn) [CLOSANTEL],56%
15,CC1CC(OC(=O)C(O)c2ccccc2)CC(C)(C)C1 (stereo not drawn) [CYCLANDELATE],52%
16,CN1CCC(=C2c3ccccc3C=Cc3ccccc32)CC1 [CYPROHEPTADINE HYDROCHLORIDE],67%
17,CCCCCCCCCCCCCCCC[N+](C)(C)Cc1ccccc1 [C[…]],90%
18,C=CC(C1=CC(=O)C=CC1=O)c1ccccc1 (stereo not drawn) [DALBERGIONE],85%
19,CN(C)[C@@H](CCOc1cccc2ccccc12)c1ccccc1 [DAPOXETINE HYDROCHLORIDE],91%
20,CNCCCN1c2ccccc2CCc2ccccc21 [DESIPRAMINE HYDROCHLORIDE],50%
21,Oc1ccc(Cl)cc1Cc1cc(Cl)ccc1O [DICHLOROPHEN],86%
22,C[C@@H]1CC[C@@]2(OC1)O[C@H]1[C@@H](O)[C@H]3[C@@H]4CC[C@H]5C[C@@H](O[C@@H]6O[C@H](CO)[C@H](O[C@@H]7O[C@H](CO)[C@@H](O)[C@H](O[C@@H]8OC[C@@H](O)[C@H](O)[C@H]8O)[C@H]7O[C@@H]7O[C@H](CO)[C@H](O)[C@H](O[C@@H]8O[C@H](CO)[C@@H](O)[C@H](O)[C@H]8O)[C@H]7O)[C@H](O)[C@H]6O)[C@H](O)C[C@]5(C)[C@H]4CC[C@]3(C)[C@H]1[C@@H]2C [DIGITONIN],79%

row,SMILES,inhibition at 40 µM
1,Cc1c(O)c(O)cc2c1CC=C1[C@@]2(C)CC[C@@]2(C)[C@@H]3C[C@](C)(C(=O)O)CC[C@]3(C)CC[C@]12C [DIHYDROCELASTROL],96%
2,O=C(Nc1ccccc1)OCC(CN1CCCCC1)OC(=O)Nc1ccccc1 (stereo not drawn) [DIPERODON HYDROCHLORIDE],54%
3,CCN(CC)CCOC(=O)C(c1ccccc1)C1CCCCC1 (stereo not drawn) [DROFENINE HYDROCHLORIDE],58%
4,CCCCc1oc2ccc(NS(C)(=O)=O)cc2c1C(=O)c1ccc(OCCCN(CCCC)CCCC)cc1 [DRONEDARONE HYDROCHLORIDE],85%
5,Clc1ccc(COC(Cn2ccnc2)c2ccc(Cl)cc2Cl)cc1 (stereo not drawn) [ECONAZOLE NITRATE],76%
6,CCN(CC)C(C)CN1c2ccccc2Sc2ccccc21 (stereo not drawn) [ETHOPROPAZINE HYDROCHLORIDE],70%
7,CC(C)=CCC/C(C)=C/CC/C(C)=C/CO [FARNESOL],76%
8,CC(NCCC(c1ccccc1)c1ccccc1)c1ccccc1 (stereo not drawn) [FENDILINE HYDROCHLORIDE],73%
9,CNCCC(Oc1ccc(C(F)(F)F)cc1)c1ccccc1 (stereo not drawn) [FLUOXETINE],67%
10,OCCN1CCN(CCCN2c3ccccc3Sc3ccc(C(F)(F)F)cc32)CC1 [FLUPHENAZINE HYDROCHLORIDE],78%
11,CC(C)=CCC[C@]1(C)C=Cc2c(O)c3c(c(CC=C(C)C)c2O1)O[C@]12C(=C[C@@H]4C[C@H]1C(C)(C)O[C@@]2(C/C=C(/C)C(=O)O)C4=O)C3=O [GAMBOGIC ACID],90%
12,CN(C)c1ccc(C(=C2C=CC(=[N+](C)C)C=C2)c2ccc(N(C)C)cc2)cc1 [GENTIAN VIOLET],95%
13,Cc1cc2c(C(C)C)c(O)c(O)c(C=O)c2c(O)c1-c1c(C)cc2c(C(C)C)c(O)c(O)c(C=O)c2c1O [GOSSYPOL],80%
14,Cc1ccc(C(C)C)cc2c(C)ccc1-2 [GUAIAZULENE],64%
15,CCCCC(CC)CN1CN(CC(CC)CCCC)CC(C)(N)C1 (stereo not drawn) [HEXETIDINE],84%
16,CCN(CC)CCNc1ccc(CO)c2sc3ccccc3c(=O)c12 [HYCANTHONE],69%
17,COC1=C(OC)C(=O)C(CCCCCCCCCCO)=C(C)C1=O [IDEBENONE],63%
18,CN(C)CCCN1c2ccccc2CCc2ccccc21 [IMIPRAMINE HYDROCHLORIDE],54%
19,CC1Cc2ccccc2N1NC(=O)c1ccc(Cl)c(S(N)(=O)=O)c1 (stereo not drawn) [INDAPAMIDE],101%
20,Clc1ccc(C(Cn2ccnc2)OCc2c(Cl)cccc2Cl)c(Cl)c1 (stereo not drawn) [I[…]],79%
21,C#C[C@]1(O)CC[C@H]2[C@@H]3CCC4=CCCC[C@@H]4[C@H]3CC[C@@]21C [LYNESTRENOL],86%

# Same assay, conditions: Vero cells, 40 μM, singlet (n=1)
row,SMILES,Percent Inhibition (%) of endosomal acidification
1,CC(=O)c1ccc2c(c1)N(CCCN1CCN(CCO)CC1)c1ccccc1S2.O=C(O)/C=C\C(=O)O.O=C(O)/C=C\C(=O)O [ACETOPHENAZINE MALEATE],62%
2,C[n+]1c2cc(N)ccc2cc2ccc(N)cc21.[Cl-] [ACRIFLAVINIUM HYDROCHLORIDE],51%
3,CCCCCCc1ccc(O)cc1O.Nc1c2ccccc2nc2ccccc12 [ACRISORCIN],50%
4,CCCCCCCCCCCCCCCCC(C(=O)O)C(O)(CC(=O)O)C(=O)O (stereo not drawn) [AGARIC ACID],89%
5,CC1(C)C=Cc2c(c3c(c4c(=O)c(-c5ccc(O)c(O)c5)coc24)OC(C)(C)CC3)O1 [ISOPOMIFERIN],85%
